Results: PMC10144546, “The Novel Artemisinin Dimer Isoniazide ELI-XXIII-98-2 Induces c-MYC Inhibition, DNA Damage, and Autophagy in Leukemia Cells” (Pharmaceutics, 2023)

Molecular target: T1, c-MYC (Homo sapiens, UniProt P01106)
T1 construct: Recombinant human c-MYC protein (ab169901)
Test: microscale thermophoresis with fluorescently labelled recombinant human c-MYC
Type: binding

T1 sequence (P01106 16-454): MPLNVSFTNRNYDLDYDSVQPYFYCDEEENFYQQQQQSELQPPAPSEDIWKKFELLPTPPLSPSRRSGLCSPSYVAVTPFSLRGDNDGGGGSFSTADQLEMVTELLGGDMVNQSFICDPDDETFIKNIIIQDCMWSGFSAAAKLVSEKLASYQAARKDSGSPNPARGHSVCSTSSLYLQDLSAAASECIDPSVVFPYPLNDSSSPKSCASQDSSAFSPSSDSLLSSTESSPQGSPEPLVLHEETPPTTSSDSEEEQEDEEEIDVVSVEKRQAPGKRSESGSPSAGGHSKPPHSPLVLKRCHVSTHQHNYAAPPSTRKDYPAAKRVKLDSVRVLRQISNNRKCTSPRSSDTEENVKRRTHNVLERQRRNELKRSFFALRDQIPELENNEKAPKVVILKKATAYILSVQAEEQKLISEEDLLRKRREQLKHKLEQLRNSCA

## C[C@H]1[C@@H](OCC(CO[C@H]2O[C@@H]3O[C@@]4(C)CC[C@H]5[C@H](C)CC[C@@H]([C@H]2C)[C@@]35OO4)NNC(=O)c2ccncc2)O[C@@H]2O[C@@]3(C)CC[C@H]4[C@H](C)CC[C@@H]1[C@@]24OO3 (stereo partly shown) [ELI-XXIIID-98-2, ELI-XXIII-98-2]
  Kd: 1190 ± 240 nM
